Reference: patent US6914045B2, “Glycopeptide antibiotics” (Wyeth Holdings Corporation, priority 2001, dated 2005)
≈ marks a conversion by molar mass, not a printed value.

Tests used:
[1] = anatomic pathology (histopathology of heart and kidney) in mice; assay type: in vivo; details: CD-1 mice, 20 mg/kg intravenously daily for 9 days, necropsy day 10, microscopic histopathology
Method: Samples of tissues from necropsied mice were formalin-fixed, paraffin-embedded, sectioned, stained with hematoxylin and eosin, and examined microscopically. Histopathologic findings were recorded. These findings were subjectively graded on a scale corresponding to slight, mild, moderate, marked and severe as compared to untreated controls.

Enterococcus sp. = assay: in vitro antibacterial evaluation, MIC by broth dilution; assay type: cell-based; details: broth dilution, 18 hours at 35° C.
In short: (§1)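 Test organisms, which included recent clinical isolates resistant to methicillin, penicillin and/or vancomycin, were inoculated at 5×10^5 CFU/mL into Muller-Hinton II […] containing antibiotic at 64-0.06 μg/mL. Minimum inhibitory concentrations were then read as the lowest level inhibiting growth.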

Staphylococcus sp. = assay: as above; assay type: cell-based; details: broth dilution, 18 hours at 35° C.
In short: as §1

Streptococcus sp. = assay: as above; assay type: cell-based; details: broth dilution, 18 hours at 35° C.
In short: as §1

Escherichia coli = assay: as above; assay type: cell-based; details: 18 hours at 35° C.
In short: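 MIC is the lowest antibiotic concentration (tested 64-0.06 μg/mL) preventing growth of a 5×10^5 CFU/mL inoculum. Determined by broth dilution in Mueller-Hinton II medium following NCCLS standard M7-A2.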

## CN=C1N(C)CC(CC2NC(=O)C(Cc3ccc(OC4OC(CO)C(OC5OC(CO)C(O)C(O)C5O)C(O)C4O)cc3)NC(=O)C(C(C)c3ccccc3)NC(=O)CNC(=O)C(CO)NC(=O)C(CC3CN(C)C(=NC)N3C3OC(CO)C(O)C(O)C3O)NC2=O)N1C (stereo not drawn) [Example 74, Cyclo[3-[1,3-dimethyl-2-(methylimino)imidazolidin-4-yl]alanyl-3-[3-hexopyranosyl-1-methyl-2-(methylimino)imidazolidin-4-yl]alanylserylglycyl-β-methylphenylalanyl-O-(4-O-hexopyranosylhexopyranosyl)tyrosyl]]
[1]
  Anatomical Pathology (Day 10), Heart: 0
  Anatomical Pathology (Day 10), Kidney: 0
Enterococcus sp.; Enterococcus avium (GC 4558)
  MIC Enterococcus avium (GC 4558): 128 µg/mL (≈ 96 µM)
Enterococcus sp.; Enterococcus faecalis (ATCC 29212)
  MIC Enterococcus faecalis (ATCC 29212): >128 µg/mL
Enterococcus sp.; Enterococcus faecalis (GC 4552)
  MIC Enterococcus faecalis (GC 4552): >128 µg/mL
Enterococcus sp.; Enterococcus faecalis (GC 4553)
  MIC Enterococcus faecalis (GC 4553): >128 µg/mL
Enterococcus sp.; Enterococcus faecalis (GC 4554)
  MIC Enterococcus faecalis (GC 4554): >128 µg/mL
Enterococcus sp.; Enterococcus faecalis (GC 6189)
  MIC Enterococcus faecalis (GC 6189): >128 µg/mL
Enterococcus sp.; Enterococcus faecium (GC 2243)
  MIC Enterococcus faecium (GC 2243): >128 µg/mL
Enterococcus sp.; Enterococcus faecium (GC 4556)
  MIC Enterococcus faecium (GC 4556): >128 µg/mL
Enterococcus sp.; Enterococcus faecium (GC 4557)
  MIC Enterococcus faecium (GC 4557): 128 µg/mL (≈ 96 µM)
Enterococcus sp.
  MIC Enterococcus avium (GC 4558): 128 µg/mL (≈ 96 µM)
  MIC Enterococcus faecalis (ATCC 29212): >128 µg/mL
  MIC Enterococcus faecalis (GC 2242): >128 µg/mL
  MIC Enterococcus faecalis (GC 2691): >128 µg/mL
  MIC Enterococcus faecalis (GC 3059): >128 µg/mL
  MIC Enterococcus faecalis (GC 4552): >128 µg/mL
  MIC Enterococcus faecalis (GC 4553): >128 µg/mL
  MIC Enterococcus faecalis (GC 4554): >128 µg/mL
  MIC Enterococcus faecalis (GC 6189): >128 µg/mL
  MIC Enterococcus faecium (GC 2243): >128 µg/mL
  MIC Enterococcus faecium (GC 4556): >128 µg/mL
  MIC Enterococcus faecium (GC 4557): 128 µg/mL (≈ 96 µM)
Enterococcus sp.; strain GC 2242
  MIC Enterococcus faecalis (GC 2242): >128 µg/mL
Enterococcus sp.; strain GC 2691
  MIC Enterococcus faecalis (GC 2691): >128 µg/mL
Enterococcus sp.; strain GC 3059
  MIC Enterococcus faecalis (GC 3059): >128 µg/mL
Staphylococcus sp.; strain ATCC 29213
  MIC Staphylococcus aureus (ATCC 29213): >128 µg/mL
Staphylococcus sp.; strain GC 1131
  MIC Staphylococcus aureus (GC 1131): >128 µg/mL
Staphylococcus sp.; strain GC 3051
  MIC Staphylococcus aureus (GC 3051): >128 µg/mL
Staphylococcus sp.; strain GC 3053
  MIC Staphylococcus aureus (GC 3053): >128 µg/mL
Staphylococcus sp.; strain GC 4541
  MIC Staphylococcus aureus (GC 4541): >128 µg/mL
Staphylococcus sp.; strain GC 4542
  MIC Staphylococcus aureus (GC 4542): >128 µg/mL
Staphylococcus sp.; strain GC 4543
  MIC Staphylococcus aureus-SMITH (GC 4543): >128 µg/mL
Staphylococcus sp.; strain GC 4544
  MIC Staphylococcus aureus (GC 4544): >128 µg/mL
Staphylococcus sp.; strain GC 4545
  MIC Staphylococcus aureus (GC 4545): >128 µg/mL
Staphylococcus sp.; strain GC 4546
  MIC Staphylococcus haemolyticus (GC 4546): >128 µg/mL
Staphylococcus sp.; strain GC 4547
  MIC Coagulase Negative Staphylococcus (GC 4547): >128 µg/mL
Staphylococcus sp.; strain GC 4548
  MIC Coagulase Negative Staphylococcus (GC 4548): >128 µg/mL
Staphylococcus sp.; strain GC 4549
  MIC Coagulase Negative Staphylococcus (GC 4549): >128 µg/mL
Staphylococcus sp.; strain GC 4551
  MIC Coagulase Negative Staphylococcus (GC 4551): >128 µg/mL
Staphylococcus sp.; strain GC 6257
  MIC Coagulase Negative Staphylococcus (GC 6257): >128 µg/mL
Streptococcus sp.
  MIC Streptococcus agalactiae (GC 4564): 128 µg/mL (≈ 96 µM)
  MIC Streptococcus pneumoniae (ATCC 6301): >128 µg/mL
  MIC Streptococcus pneumoniae (GC 1894): 128 µg/mL (≈ 96 µM)
  MIC Streptococcus pneumoniae (GC 4565): >128 µg/mL
  MIC Streptococcus pyogenes (GC 4563): >128 µg/mL
Streptococcus sp.; strain ATCC 6301
  MIC Streptococcus pneumoniae (ATCC 6301): >128 µg/mL
Streptococcus sp.; strain GC 1894
  MIC Streptococcus pneumoniae (GC 1894): 128 µg/mL (≈ 96 µM)
Streptococcus sp.; strain GC 4563
  MIC Streptococcus pyogenes (GC 4563): >128 µg/mL
Streptococcus sp.; strain GC 4564
  MIC Streptococcus agalactiae (GC 4564): 128 µg/mL (≈ 96 µM)
Streptococcus sp.; strain GC 4565
  MIC Streptococcus pneumoniae (GC 4565): >128 µg/mL
Escherichia coli
  MIC Escherichia coli (ATCC 25922): >128 µg/mL
  MIC Escherichia coli (GC 4559): >128 µg/mL
  MIC Escherichia coli (GC 4560): >128 µg/mL
